Laboratory results published in patent publication US20190031618A1, “BENZIMIDAZOLE DERIVATIVES USEFUL AS CB-1 INVERSE AGONISTS” (Janssen Pharmaceutica NV, priority 2015, published 2019).
Where two headings read alike, the source gives them in different places.

How the values were obtained:
[1] = target: Human CB2R (Cannabinoid receptor 2) (Homo sapiens, UniProt P34972); experiment: CB-2 in vitro cAMP (HTRF) assay; format: cell-based; conditions: HEK cells, cAMP HTRF, 250 nM forskolin; mean where tested more than once; read-out: CB2 HEK_cAMP EC50
Outline: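 HEK-293 cells stably expressing receptor, plated overnight at 4E5 cells/mL, tested with 1/3 serial dilutions of compound in HBSS/HEPES/BSA buffer with 0.5 mM IBMX and forskolin (diluted to 1.5 μM in buffer). cAMP measured by competitive HTRF immunoassay (d2-cAMP, cryptate anti-cAMP), signal inversely proportional to cAMP.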

[2] = target: Human CB1R (Cannabinoid receptor 1) (Homo sapiens, UniProt P21554); experiment: CB-1 in vitro cAMP (HTRF) assay; format: cell-based; conditions: cAMP HTRF, 250 nM forskolin, mean where tested more than once
Outline: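 Intracellular cAMP from HTRF ratio (d2-cAMP vs Eu-cryptate anti-cAMP), converted to nM via per-plate standards, in stable human CB1R HEK-293 cells.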

[3] = HEK cells, read-out: CB1 HEK_cAMP EC50

Sequence of Human CB2R (Cannabinoid receptor 2) (P34972 whole entry): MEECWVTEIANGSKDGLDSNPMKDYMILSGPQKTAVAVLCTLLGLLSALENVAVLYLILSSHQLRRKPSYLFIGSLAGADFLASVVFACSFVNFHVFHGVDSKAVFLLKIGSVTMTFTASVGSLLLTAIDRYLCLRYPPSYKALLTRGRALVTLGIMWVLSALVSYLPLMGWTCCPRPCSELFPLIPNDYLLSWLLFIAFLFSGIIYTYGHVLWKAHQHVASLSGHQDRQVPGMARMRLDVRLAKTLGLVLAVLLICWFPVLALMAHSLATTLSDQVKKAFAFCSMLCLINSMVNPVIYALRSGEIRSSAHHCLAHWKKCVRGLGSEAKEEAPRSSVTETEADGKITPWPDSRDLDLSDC
Sequence of Human CB1R (Cannabinoid receptor 1) (P21554 whole entry): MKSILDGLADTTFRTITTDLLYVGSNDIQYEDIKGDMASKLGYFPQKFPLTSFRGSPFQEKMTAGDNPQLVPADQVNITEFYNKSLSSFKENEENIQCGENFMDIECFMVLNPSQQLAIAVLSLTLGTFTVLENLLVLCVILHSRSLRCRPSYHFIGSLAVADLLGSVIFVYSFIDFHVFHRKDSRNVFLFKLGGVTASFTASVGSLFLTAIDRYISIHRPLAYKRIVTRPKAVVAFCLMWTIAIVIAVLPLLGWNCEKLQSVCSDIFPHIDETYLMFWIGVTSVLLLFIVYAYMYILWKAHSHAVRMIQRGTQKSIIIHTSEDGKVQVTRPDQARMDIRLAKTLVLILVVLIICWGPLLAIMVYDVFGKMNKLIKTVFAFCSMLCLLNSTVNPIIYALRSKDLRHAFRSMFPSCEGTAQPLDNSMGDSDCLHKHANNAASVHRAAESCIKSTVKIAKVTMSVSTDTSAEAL

Compound	EC50 [1]	EC50 [2, 3]	EC50 ([2]; CB1 HEK_cAMP EC50, HEK cells)
O=C(O)c1ccc(CN2CCC(n3c(C4CC4)nc4ccc(C(c5ccc(Cl)cc5)c5ccc(Cl)cc5)cc43)CC2)cc1 [Example 147]	7560 nM	10.2 nM	–
COc1ccc(Cn2c(C3CC3)nc3ccc(C(c4ccc(Cl)cc4)c4ccc(Cl)cc4)cc32)cc1 [Example 177]	7900 nM	96.7 nM	–
CC(c1cccc(O)c1)N1CCC(n2c(C3CC3)nc3ccc(C(c4ccc(Cl)cc4)c4ccc(Cl)cc4)cc32)CC1 (centres unmarked) [Example 56]	> 10000 nM	19.3 nM	–
O=C(O)c1cc(OCCn2c(C3CC3)nc3ccc(C(c4ccc(Cl)cc4)c4ccc(Cl)cc4)cc32)cc(C(F)(F)F)c1 [Example 16]	698 nM	173 nM	–
O=C(NCc1ccccc1)N1CCC(n2c(C3CC3)nc3ccc(C(c4ccc(Cl)cc4)c4ccc(Cl)cc4)cc32)CC1 [Example 75]	1150 nM	35.7 nM	–
Clc1ccc(C(c2ccc(Cl)cc2)c2ccc3nc(C4CC4)n(CCc4ccc(Br)cc4)c3c2)cc1 [Example 27]	> 10000 nM	11 nM	–
Cc1ccc(C(c2ccc(C)cc2)c2ccc3nc(C4CC4)n(C4CCN(Cc5cccc(C(=O)O)c5)CC4)c3c2)cc1 [Example 96]	7920 nM	27.3 nM	–
NC(=O)c1ccc(Cn2c(C3CC3)nc3ccc(C(c4ccc(Cl)cc4)c4ccc(Cl)cc4)cc32)cc1 [Example 133]	3500 nM	812 nM	–
Clc1ccc(C(c2ccc(Cl)cc2)c2ccc3nc(C4CC4)n(CCc4cccc(Br)c4)c3c2)cc1 [Example 20]	> 10000 nM	15.6 nM	–
O=C(O)c1cnc(N2CCC(Cn3c(C4CC4)nc4ccc(C(c5ccc(Cl)cc5)c5ccc(Cl)cc5)cc43)CC2)nc1 [Example 4]	2160 nM	9.8 nM	–
O=C(O)c1cccc(-c2cccc(CCn3c(C4CC4)nc4ccc(C(c5ccc(Cl)cc5)c5ccc(Cl)cc5)cc43)c2)c1 [Example 11]	4970 nM	49.4 nM	–
CCOC(=O)COc1ccc(Cn2c(C3CC3)nc3ccc(C(c4ccc(Cl)cc4)c4ccc(Cl)cc4)cc32)cc1 [Example 175]	4750 nM	5420 nM	–
O=C(O)c1ccc(N[C@H]2CC[C@@H](n3c(C4CC4)nc4ccc(C(c5ccc(Cl)cc5)c5ccc(Cl)cc5)cc43)CC2)cc1 [Example 32]	2160 nM	39.5 nM	–
O=C(O)c1cc(CN2CCC(n3c(C4CC4)nc4ccc(C(c5ccc(Cl)cc5)c5ccc(Cl)cc5)cc43)CC2)cc(C(F)(F)F)c1 [Example 93]	1750 nM	63.9 nM	–
COc1ccccc1S(=O)(=O)N1CCC(n2c(C3CC3)nc3ccc(C(c4ccc(Cl)cc4)c4ccc(Cl)cc4)cc32)CC1 [Example 275]	> 10000 nM	1.6 nM	–
CCOC(=O)COc1ccc(-n2c(C3CC3)nc3ccc(C(c4ccc(Cl)cc4)c4ccc(Cl)cc4)cc32)cc1 [Example 170]	314 nM	4.4 nM	–
O=C(NCCO)c1cccc(CN2CCC(n3c(C4CC4)nc4ccc(C(c5ccc(Cl)cc5)c5ccc(Cl)cc5)cc43)CC2)c1 [Example 70]	5820 nM	8.3 nM	–
Clc1ccc(C(c2ccc(Cl)cc2)c2ccc3nc(C4CC4)n(CC4CCOCC4)c3c2)cc1 [Example 120]	5430 nM	–	24.9 nM
CC(c1cccc(C(=O)O)c1)N1CCC(n2c(C3CC3)nc3ccc(C(c4ccc(Cl)cc4)c4ccc(Cl)cc4)cc32)CC1 (single isomer, unassigned) [Example 48]	3840 nM	3 nM	–
NC(=O)c1csc(CN2CCC(n3c(C4CC4)nc4ccc(C(c5ccc(Cl)cc5)c5ccc(Cl)cc5)cc43)CC2)c1 [Example 127]	> 10000 nM	5 nM	–
CCC(c1cccc(C(=O)O)c1)N1CCC(n2c(C3CC3)nc3ccc(C(c4ccc(Cl)cc4)c4ccc(Cl)cc4)cc32)CC1 (centres unmarked) [Example 49]	4400 nM	8.5 nM	–
O=C(O)c1cc(CN2CCC(n3c(C4CC4)nc4ccc(C(c5ccc(Cl)cc5)c5ccc(Cl)cc5)cc43)CC2)ccc1F [Example 95]	> 10000 nM	11.2 nM	–
O=C(Oc1ccccc1)N1CCC(n2c(C3CC3)nc3ccc(C(c4ccc(Cl)cc4)c4ccc(Cl)cc4)cc32)CC1 [Example 61]	> 21000 nM	19 nM	–

The next lines start with results.

EC50 [1]	EC50 [2, 3]	Compound	EC50 ([2]; CB1 HEK_cAMP EC50, HEK cells)
> 10000 nM	4840 nM	O=S(=O)(N1CCC(n2c(-c3ccc(Cl)cc3)nc3ccc(C(c4ccc(Cl)cc4)c4nccs4)cc32)CC1)C(F)(F)F (centres unmarked) [Example 394]	–
4950 nM	1430 nM	CCOC(=O)N1CCC(n2c(-c3ccc(Cl)cc3Cl)nc3ccc(C(c4ccc(Cl)cc4)c4nccs4)cc32)CC1 (centres unmarked) [Example 443]	–
> 10000 nM	1.9 nM	NC(=O)c1ccc(S(=O)(=O)N2CCC(n3c(C4CC4)nc4ccc(C(c5ccc(Cl)cc5)c5ccc(Cl)cc5)cc43)CC2)cn1 [Example 238]	–
9900 nM	6.6 nM	CS(=O)(=O)N1CCC(n2c(C3CC3)nc3ccc(C(c4ccc(Cl)cc4)c4ccc(Cl)cc4)cc32)CC1 [Example 270]	–
> 10000 nM	32.2 nM	O=S(=O)(c1ccc(OC(F)(F)F)cc1)N1CCC(n2c(C3CC3)nc3ccc(C(c4ccc(Cl)cc4)c4ccc(Cl)cc4)cc32)CC1 [Example 279]	–
1710 nM	5 nM	NC(=O)COc1ccc(S(=O)(=O)N2CCC(n3c(C4CC4)nc4ccc(C(c5ccc(Cl)cc5)c5ccc(Cl)cc5)cc43)CC2)cc1 [Example 249]	–
> 10000 nM	2540 nM	CCOC(=O)N1CCC(n2c(C3CN(C(=O)OC(C)(C)C)C3)nc3ccc(C(c4ccc(Cl)cc4)c4nccs4)cc32)CC1 (centres unmarked) [Example 417]	–
> 10000 nM	8310 nM	O=C(O)c1ccc(S(=O)(=O)N2CCC(n3c(C4CC4)nc4ccc(C(CO)(c5ccc(Cl)cc5)c5ccc(Cl)cc5)cc43)CC2)cc1Cl [Example 213]	–
> 10000 nM	21.9 nM	COc1cccc(S(=O)(=O)N2CCC(n3c(C4CC4)nc4ccc(C(c5ccc(Cl)cc5)c5ccc(Cl)cc5)cc43)CC2)c1 [Example 261]	–
> 10000 nM	5050 nM	COc1cc(S(=O)(=O)N2CCC(n3c(C4CC4)nc4ccc(C(CO)(c5ccc(Cl)cc5)c5ccc(Cl)cc5)cc43)CC2)ccc1C(N)=O [Example 192]	–
4000 nM	59.7 nM	Clc1ccc(CCn2c(C3CC3)nc3ccc(C(c4ccc(Cl)cc4)c4nccs4)cc32)cc1 (centres unmarked) [Example 338]	–
> 10000 nM	51.8 nM	COc1ccc(S(=O)(=O)N2CCC(n3c(C4CC4)nc4ccc(C(c5ccc(Cl)cc5)c5ccc(Cl)cc5)cc43)CC2)cc1C(N)=O [Example 187]	–
> 10000 nM	160 nM	Cc1ccc(S(=O)(=O)N2CCC(n3c(C4CC4)nc4ccc(C(c5ccc(Cl)cc5)c5ccc(Cl)cc5)cc43)CC2)cc1C(=O)O [Example 188]	–
> 10000 nM	67.5 nM	COCC(c1ccc(Cl)cc1)(c1ccc(Cl)cc1)c1ccc2nc(C3CC3)n(C3CCN(S(=O)(=O)c4ccc(C(=O)O)c(Cl)c4)CC3)c2c1 [Example 178]	–
> 10000 nM	12.5 nM	COc1ccc(S(=O)(=O)N2CCC(n3c(C4CC4)nc4ccc(C(c5ccc(Cl)cc5)c5ccc(Cl)cc5)cc43)CC2)cc1 [Example 281]	–
272 nM	441 nM	Clc1ccc(C(c2ccc3nc(-c4ccoc4)n(-c4cccc(Cl)c4)c3c2)c2nccs2)cc1 (centres unmarked) [Example 376]	–
> 10000 nM	1120 nM	OCc1nc2ccc(C(c3ccc(Cl)cc3)c3nccs3)cc2n1-c1cccc(Cl)c1 (centres unmarked) [Example 374]	–
> 10000 nM	128 nM	NC(=O)CS(=O)(=O)N1CCC(n2c(C3CC3)nc3ccc(C(c4ccc(Cl)cc4)c4ccc(Cl)cc4)cc32)CC1 [Example 247]	–
> 10000 nM	2090 nM	CCOC(=O)N1CCC(n2c(-c3ccc(Cl)cc3)nc3ccc(C(c4ccc(Cl)cc4)c4nccs4)cc32)CC1 (centres unmarked) [Example 441]	–
> 10000 nM	16.5 nM	CCc1nc2ccc(C(c3ccc(Cl)cc3)c3nccs3)cc2n1CC1CCN(S(=O)(=O)C(F)(F)F)CC1 (centres unmarked) [Example 323]	–
> 10000 nM	15.5 nM	NC(=O)c1ccc(S(=O)(=O)N2CCC(n3c(C4CC4)nc4ccc(C(c5ccc(Cl)cc5)c5ccc(Cl)cc5)cc43)CC2)cc1 [Example 262]	–
1430 nM	> 8700 nM	Clc1ccc(Cn2cnc3ccc(C(c4ccc(Cl)cc4)c4nccs4)cc32)cc1 (centres unmarked) [Example 466]	–
> 10000 nM	283 nM	O=S(=O)(N1CCC(n2c(C3CC3)nc3ccc(C(CO)(c4ccc(Cl)cc4)c4ccc(Cl)cc4)cc32)CC1)C(F)(F)F [Example 245]	–
> 10000 nM	20.1 nM	O=S(=O)(c1ccccc1O)N1CCC(n2c(C3CC3)nc3ccc(C(c4ccc(Cl)cc4)c4ccc(Cl)cc4)cc32)CC1 [Example 258]	–
> 10000 nM	379 nM	CC(Cc1ccc(Cl)cc1)n1c(C(F)F)nc2ccc(C(c3ccc(Cl)cc3)c3nccs3)cc21 (centres unmarked) [Example 329]	–
3350 nM	4490 nM	OC(c1ccc(Cl)cc1)(c1ccc2ncn(CCc3cccc(Cl)c3)c2c1)c1nccs1 (centres unmarked) [Example 405]	–
> 10000 nM	192 nM	Cc1nc2ccc(C(c3ccc(Cl)cc3)c3nccs3)cc2n1CCc1cccc(Cl)c1 (centres unmarked) [Example 437]	–
> 10000 nM	29.5 nM	NC(=O)c1ccc(S(=O)(=O)N2CCC(n3c(C4CC4)nc4ccc(C(c5ccc(Cl)cc5)c5ccc(Cl)cc5)cc43)CC2)cc1F [Example 189]	–
> 10000 nM	50.5 nM	NC(=O)CC(=O)N1CCC(n2c(C3CC3)nc3ccc(C(c4ccc(Cl)cc4)c4ccc(Cl)cc4)cc32)CC1 [Example 278]	–
